For one data set, the target named is T1, M2 muscarinic receptor (Homo sapiens, UniProt P08172).
T1 sequence (P08172 1-466): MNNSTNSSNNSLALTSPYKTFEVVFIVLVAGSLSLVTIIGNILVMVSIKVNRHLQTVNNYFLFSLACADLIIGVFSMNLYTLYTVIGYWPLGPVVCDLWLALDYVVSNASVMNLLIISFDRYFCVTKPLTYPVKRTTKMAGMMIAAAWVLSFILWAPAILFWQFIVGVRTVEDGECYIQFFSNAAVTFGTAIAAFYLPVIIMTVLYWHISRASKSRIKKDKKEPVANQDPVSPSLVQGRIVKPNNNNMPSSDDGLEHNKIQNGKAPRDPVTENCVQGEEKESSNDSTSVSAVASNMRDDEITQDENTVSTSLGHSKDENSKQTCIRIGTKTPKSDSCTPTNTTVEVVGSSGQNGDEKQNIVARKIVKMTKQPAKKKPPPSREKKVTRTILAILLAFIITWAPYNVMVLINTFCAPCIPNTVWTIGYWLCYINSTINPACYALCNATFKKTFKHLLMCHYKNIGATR
Description: Off-target activity, known assay methods, M2.

The next data set deals with iGluR5 (Homo sapiens, UniProt P39086). Description: Off-target activity, known assay methods, iGluR5.
Data set [1] deals with 5-HT2A serotonin receptor (Homo sapiens, UniProt P28223). Description: Off-target activity, known assay methods, 5-HT2A.
The target of another data set is T2, human mGlu1 receptor (Homo sapiens, UniProt Q13255).
T2 construct: expressed in transfected cells; host or cells: AV12 cells co-expressing rat EAAT1
As to the kind of experiment: FLIPR calcium antagonist assay for mGlu receptor selectivity, mGlu1. The settings on record: inhibition of EC90 glutamate response, read-out: mGlu1 % inhib. @12.5 μM. Format: cell-based. From the text: (§1) The relative antagonist potencies of the compounds of the invention for the other human mGlu receptors can be assessed with either a cAMP assay or fluorometric calcium response assay (see for example Fell et al., JPET (in press)). Briefly, individual AV12 cell lines containing the rat EAAT1 glutamate transporter and stably expressing the human mGlu1, 2, 3, 4, 5, 6, & 8 receptors are used for these studies. The mGlu1 and 5 receptors are Gq-coupled, so they naturally signal through phospholipase C, producing a calcium flux response which can be used to measure receptor activation using a Fluorometric Imaging Plate Reader (FLIPR, Molecular Devices). […]
(§2) Intracellular calcium levels are monitored using FLIPR before and after the addition of test compounds and Fluo-3 AM (Invitrogen) or Calcium 4 (Molecular Devices) dye, depending on the cell line. […] The results are analyzed using GraphPad Prism v4.03 to calculate the concentrations of glutamate needed to induce the EC90 (antagonist assay) and EC10 (potentiator assay) responses.
(§3) Compounds are tested at each mGlu receptor in a two-addition FLIPR assay using a 10-point concentration response profile starting at a final concentration of 25 μM for the agonist assay and 12.5 μM for the potentiator and antagonist assays. […] Agonist effects are quantified as percent stimulation induced by compound alone relative to the maximal glutamate response. […]

The test system of another data set is male NIH-Swiss mice. As to the kind of experiment: Forced-swim test in mice (mFST). Format: in vivo, mouse. The settings on record: for ED60 (mg/kg): immobility, last 4 min of 6 min; for Maximal Decrease (1 − compound/control) * 100%: immobilization time.
Data set [2] relates to mGlu2+/+ and mGlu2−/− mice. Description: mFST in mGlu2 knock-out mice and +/+ littermates. To be noted: 10 mg/kg, i.p., 30 min prior.
The next data set addresses hERG channel (Homo sapiens, UniProt Q12809). Description: Off-target activity, known assay methods, hERG.
The target in a further data set is T3, human mGlu3 receptor (Homo sapiens, UniProt Q14832).
T3 construct: expressed in transfected cells; host or cells: AV12 cells co-expressing rat EAAT1
Description: mGlu3 receptor cAMP antagonist assay. To be noted: reversal of DCG IV (EC90) inhibition of forskolin-stimulated cAMP; relative IC50. Format: cell-based. How it is done: Antagonist activity is assayed in recombinant AV12 cells stably expressing human mGlu2 or mGlu3 receptors and the rat glutamate transporter EAAT1 (Excitatory Amino Acid Transporter 1). The cell lines are maintained by culturing in DMEM with high glucose and pyridoxine hydrochloride supplemented with 5% dialyzed fetal bovine serum (FBS), 1 mM sodium pyruvate, 1 mM HEPES and 1 mM L-glutamine; geneticin and hygromycin B are used as selection antibiotics.
Reversal of the inhibition of forskolin-stimulated cAMP production by test compounds is measured using homogeneous time resolved fluorescence technology (HTRF; Cisbio cat #62AM4PEB). The medium is removed and the cells are incubated with 100 μl cAMP stimulation buffer (STIM) for 30 minutes at 37° C. […] Cells are incubated at 37° C. for 20 minutes. To measure the cAMP levels, cAMP-d2 conjugate and anti cAMP-cryptate conjugate in lysis buffer are incubated with the treated cells at room temperature for 1 hour (mGlu2) or 1.5 hour (mGlu3). […] The raw data are converted to cAMP amount (pmole/well) using a cAMP standard curve generated for each experiment. Relative IC50 values are calculated from the top-bottom range of the concentration response curve using a four-parameter logistic curve fitting program (ActivityBase v5.3.1.22).

Data set [3] relates to wild type, mGlu2(−/−), mGlu3(−/−) and double knockout mice. As to the kind of experiment: Wakefulness in mGlu2 and/or mGlu3 receptor deletion mice. The settings on record: 10 mg/kg, i.p. Format: in vivo, mouse. From the text:
Additionally, in three separate experiments, mice with single mGlu2(−/−), single mGlu3(−/−), or double mGlu2(−/−) mGlu3(−/−) receptor deletions are studied.

In another data set the target is T4, human mGlu8 receptor (Homo sapiens, UniProt O00222).
T4 construct: expressed in transfected cells; host or cells: AV12 cells co-expressing rat EAAT1 and Galpha15
Description: FLIPR calcium antagonist assay for mGlu receptor selectivity, mGlu8. Format: cell-based. An excerpt:
(§4) The relative antagonist potencies of the compounds of the invention for the other human mGlu receptors can be assessed with either a cAMP assay or fluorometric calcium response assay (see for example Fell et al., JPET (in press)). Briefly, individual AV12 cell lines containing the rat EAAT1 glutamate transporter and stably expressing the human mGlu1, 2, 3, 4, 5, 6, & 8 receptors are used for these studies. The mGlu1 and 5 receptors are Gq-coupled, so they naturally signal through phospholipase C, producing a calcium flux response which can be used to measure receptor activation using a Fluorometric Imaging Plate Reader (FLIPR, Molecular Devices). The cell lines expressing the mGlu2, 3, 4, and 8 receptor are designed to express the Gα15 subunit so that these Gi-coupled receptors will generate a calcium flux response similar to the mGlu1 and 5 receptor expressing cell lines. The mGlu6 receptor is tested in a cAMP format using methods analogous to those developed for mGlu2 and mGlu3 above. These cell lines are maintained as previously described except that amounts of L-glutamine and selection agents (geneticin, hygromycin B, zeocin, and blasticidin) may vary depending on the cell line. Confluent cultures are passaged biweekly.
Intracellular calcium levels are monitored using FLIPR before and after the addition of test compounds and Fluo-3 AM (Invitrogen) or Calcium 4 (Molecular Devices) dye, depending on the cell line. Cells are plated 24 hours prior to assay in a variable concentration of glutamine and a variable density of cells per well, depending on the cell line. The medium is removed and the cells are incubated with 8 μM of dye (50 μl per well) for 90 or 120 minutes (depending on cell line) at 25° C. […] The results are analyzed using GraphPad Prism v4.03 to calculate the concentrations of glutamate needed to induce the EC90 (antagonist assay) and EC10 (potentiator assay) responses.
Compounds are tested at each mGlu receptor in a two-addition FLIPR assay using a 10-point concentration response profile starting at a final concentration of 25 μM for the agonist assay and 12.5 μM for the potentiator and antagonist assays. […] Agonist effects are quantified as percent stimulation induced by compound alone relative to the maximal glutamate response. Antagonist effects are quantified by calculating the percent inhibition of the EC90 glutamate response caused by the compound. Potentiation effects are quantified as percent increase in the presence of an EC10 response in glutamate relative to the ECmax response. All data are calculated as relative IC50 or EC50 values using a four-parameter logistic curve fitting program (ActivityBase v5.3.1.22).

Another data set concerns the target T5, human mGlu6 receptor (Homo sapiens, UniProt O15303).
T5 construct: expressed in transfected cells; host or cells: AV12 cells co-expressing rat EAAT1
Description: mGlu6 cAMP antagonist assay (reference agonist L-AP4). Format: cell-based. The settings on record: cAMP format.
Excerpt: as §4, with “These cell lines are maintained as previously described except that amounts of L-glutamine and selection agents (geneticin, hygromycin B, zeocin, and blasticidin) may vary depending on the cell line. Confluent cultures are passaged biweekly.” left out
Antagonist activity in mGlu6 cells is measured using cAMP in a method analogous to that described above for mGlu2 and mGlu3 activity, except that the reference agonist was L-AP4 (Tocris). […] Relative IC50 and EC50 values are calculated from the top-bottom range of the concentration response curve using a four-parameter logistic curve fitting program (ActivityBase v5.3.1.22).

Data set [4] addresses 5-HT2B serotonin receptor (Homo sapiens, UniProt P41595). Description: Off-target activity, known assay methods, 5-HT2B.
The next data set concerns the target T6, human mGlu4 receptor (Homo sapiens, UniProt Q14833).
T6 construct: expressed in transfected cells; host or cells: AV12 cells co-expressing rat EAAT1 and Galpha15
As to the kind of experiment: FLIPR calcium antagonist assay for mGlu receptor selectivity, mGlu4. Format: cell-based. To be noted: inhibition of EC90 glutamate response, read-out: mGlu4 % inhib. @12.5 μM.
Excerpt: as §1, §2, §3

Another data set has as its target T7, human mGlu5 receptor (Homo sapiens, UniProt P41594).
T7 construct: expressed in transfected cells; host or cells: AV12 cells co-expressing rat EAAT1
Description: FLIPR calcium antagonist assay for mGlu receptor selectivity, mGlu5. Format: cell-based. The settings on record: inhibition of EC90 glutamate response, read-out: mGlu5 % inhib. @12.5 μM.
Excerpt: as §1, §2, §3

In a further data set the test system is mice. Description: mFST alone and in combination with SSRI. Format: in vivo, mouse. To be noted: Example 12 10 mg/kg p.o.
[5] abbreviates: citalopram experiment, citalopram 1 mg/kg i.p.
The mark [6] stands for this setting: fluoxetine experiment, fluoxetine 10 mg/kg i.p.

SMILES strings stand for the structures.

T4 sequence (O00222 34-908): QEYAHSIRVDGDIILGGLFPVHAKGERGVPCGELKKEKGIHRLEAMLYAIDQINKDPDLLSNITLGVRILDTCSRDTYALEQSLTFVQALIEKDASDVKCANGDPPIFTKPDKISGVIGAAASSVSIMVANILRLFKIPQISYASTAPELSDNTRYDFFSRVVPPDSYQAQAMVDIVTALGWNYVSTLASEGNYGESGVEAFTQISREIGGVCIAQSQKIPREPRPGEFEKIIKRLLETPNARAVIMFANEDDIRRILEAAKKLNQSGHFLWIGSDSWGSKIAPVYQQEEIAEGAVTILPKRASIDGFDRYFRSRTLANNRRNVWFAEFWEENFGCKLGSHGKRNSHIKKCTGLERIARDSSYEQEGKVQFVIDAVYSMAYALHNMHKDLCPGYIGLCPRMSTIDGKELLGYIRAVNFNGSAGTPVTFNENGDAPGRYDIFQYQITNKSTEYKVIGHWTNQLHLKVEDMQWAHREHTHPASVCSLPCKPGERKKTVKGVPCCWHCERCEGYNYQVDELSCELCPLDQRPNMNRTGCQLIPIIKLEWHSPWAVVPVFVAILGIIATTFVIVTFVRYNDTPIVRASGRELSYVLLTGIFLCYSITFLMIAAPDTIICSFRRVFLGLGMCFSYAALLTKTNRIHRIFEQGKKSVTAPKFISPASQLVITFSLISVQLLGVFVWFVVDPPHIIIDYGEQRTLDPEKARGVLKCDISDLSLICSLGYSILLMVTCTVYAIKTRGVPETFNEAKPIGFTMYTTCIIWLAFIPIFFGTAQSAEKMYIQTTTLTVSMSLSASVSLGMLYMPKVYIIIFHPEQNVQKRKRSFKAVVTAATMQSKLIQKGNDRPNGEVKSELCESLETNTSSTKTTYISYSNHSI
Sequence of hERG channel (Q12809 whole entry): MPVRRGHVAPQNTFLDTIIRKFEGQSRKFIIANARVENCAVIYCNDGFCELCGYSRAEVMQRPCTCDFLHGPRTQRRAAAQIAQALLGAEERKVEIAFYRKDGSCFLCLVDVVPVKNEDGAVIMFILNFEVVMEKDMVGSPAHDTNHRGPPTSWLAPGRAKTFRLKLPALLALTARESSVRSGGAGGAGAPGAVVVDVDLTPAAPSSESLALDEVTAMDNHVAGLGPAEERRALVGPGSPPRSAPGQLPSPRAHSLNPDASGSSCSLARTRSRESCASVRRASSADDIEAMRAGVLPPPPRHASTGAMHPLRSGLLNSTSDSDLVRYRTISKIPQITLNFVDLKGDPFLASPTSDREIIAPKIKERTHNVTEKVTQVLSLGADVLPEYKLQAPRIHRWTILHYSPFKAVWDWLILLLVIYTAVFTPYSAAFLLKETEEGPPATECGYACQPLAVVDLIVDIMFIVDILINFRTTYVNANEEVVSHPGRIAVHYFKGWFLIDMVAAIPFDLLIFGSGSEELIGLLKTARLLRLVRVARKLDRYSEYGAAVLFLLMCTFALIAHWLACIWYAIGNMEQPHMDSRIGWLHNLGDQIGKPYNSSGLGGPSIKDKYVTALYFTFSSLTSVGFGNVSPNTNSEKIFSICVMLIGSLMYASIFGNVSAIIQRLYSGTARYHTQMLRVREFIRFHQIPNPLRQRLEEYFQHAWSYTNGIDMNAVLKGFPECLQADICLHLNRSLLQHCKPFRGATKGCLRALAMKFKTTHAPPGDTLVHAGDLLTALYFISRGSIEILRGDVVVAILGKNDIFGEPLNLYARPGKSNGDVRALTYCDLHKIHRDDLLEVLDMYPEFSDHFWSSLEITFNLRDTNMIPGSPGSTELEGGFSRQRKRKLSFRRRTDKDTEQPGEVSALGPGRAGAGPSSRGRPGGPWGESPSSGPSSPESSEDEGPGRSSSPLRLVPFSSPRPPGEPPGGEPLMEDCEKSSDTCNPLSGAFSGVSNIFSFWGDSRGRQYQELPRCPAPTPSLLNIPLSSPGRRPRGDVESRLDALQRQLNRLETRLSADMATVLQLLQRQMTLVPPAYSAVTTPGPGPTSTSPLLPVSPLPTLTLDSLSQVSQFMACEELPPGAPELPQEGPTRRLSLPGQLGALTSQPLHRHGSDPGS
Sequence of 5-HT2B serotonin receptor (P41595 whole entry): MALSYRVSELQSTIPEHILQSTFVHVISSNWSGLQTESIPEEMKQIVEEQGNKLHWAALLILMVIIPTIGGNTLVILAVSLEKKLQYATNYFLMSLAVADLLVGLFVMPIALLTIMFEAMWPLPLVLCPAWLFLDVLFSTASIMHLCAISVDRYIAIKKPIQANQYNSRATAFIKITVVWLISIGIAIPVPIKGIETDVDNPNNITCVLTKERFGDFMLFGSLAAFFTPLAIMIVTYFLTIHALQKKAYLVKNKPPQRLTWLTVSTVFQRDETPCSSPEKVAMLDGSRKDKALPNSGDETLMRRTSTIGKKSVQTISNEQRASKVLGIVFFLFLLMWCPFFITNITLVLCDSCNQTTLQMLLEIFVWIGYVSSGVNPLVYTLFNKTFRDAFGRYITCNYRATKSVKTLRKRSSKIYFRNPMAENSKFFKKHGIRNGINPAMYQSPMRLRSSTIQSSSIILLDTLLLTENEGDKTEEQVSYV
T3 sequence (Q14832 23-879): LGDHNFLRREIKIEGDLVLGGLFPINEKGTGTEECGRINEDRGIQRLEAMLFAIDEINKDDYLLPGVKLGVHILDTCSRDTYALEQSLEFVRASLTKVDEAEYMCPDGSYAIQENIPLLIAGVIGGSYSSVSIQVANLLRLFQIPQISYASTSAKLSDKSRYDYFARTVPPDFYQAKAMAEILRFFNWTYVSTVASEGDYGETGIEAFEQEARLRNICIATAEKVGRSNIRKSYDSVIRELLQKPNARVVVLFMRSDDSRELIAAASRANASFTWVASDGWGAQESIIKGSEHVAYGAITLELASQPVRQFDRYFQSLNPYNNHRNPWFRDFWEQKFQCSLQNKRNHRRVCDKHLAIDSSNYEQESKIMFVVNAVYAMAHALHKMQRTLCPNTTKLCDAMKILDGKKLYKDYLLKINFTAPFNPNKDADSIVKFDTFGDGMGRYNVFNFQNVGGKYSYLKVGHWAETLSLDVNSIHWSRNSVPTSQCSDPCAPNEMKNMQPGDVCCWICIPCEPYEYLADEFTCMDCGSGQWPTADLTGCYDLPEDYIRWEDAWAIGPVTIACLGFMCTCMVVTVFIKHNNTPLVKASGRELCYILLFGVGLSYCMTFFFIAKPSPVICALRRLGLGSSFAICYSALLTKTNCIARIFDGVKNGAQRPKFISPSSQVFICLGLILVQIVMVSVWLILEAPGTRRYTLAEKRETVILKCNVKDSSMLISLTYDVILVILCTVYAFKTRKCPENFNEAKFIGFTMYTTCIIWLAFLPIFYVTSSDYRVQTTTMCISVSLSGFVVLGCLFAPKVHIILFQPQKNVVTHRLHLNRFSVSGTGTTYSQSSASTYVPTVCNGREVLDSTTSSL
T7 sequence (P41594 21-1212): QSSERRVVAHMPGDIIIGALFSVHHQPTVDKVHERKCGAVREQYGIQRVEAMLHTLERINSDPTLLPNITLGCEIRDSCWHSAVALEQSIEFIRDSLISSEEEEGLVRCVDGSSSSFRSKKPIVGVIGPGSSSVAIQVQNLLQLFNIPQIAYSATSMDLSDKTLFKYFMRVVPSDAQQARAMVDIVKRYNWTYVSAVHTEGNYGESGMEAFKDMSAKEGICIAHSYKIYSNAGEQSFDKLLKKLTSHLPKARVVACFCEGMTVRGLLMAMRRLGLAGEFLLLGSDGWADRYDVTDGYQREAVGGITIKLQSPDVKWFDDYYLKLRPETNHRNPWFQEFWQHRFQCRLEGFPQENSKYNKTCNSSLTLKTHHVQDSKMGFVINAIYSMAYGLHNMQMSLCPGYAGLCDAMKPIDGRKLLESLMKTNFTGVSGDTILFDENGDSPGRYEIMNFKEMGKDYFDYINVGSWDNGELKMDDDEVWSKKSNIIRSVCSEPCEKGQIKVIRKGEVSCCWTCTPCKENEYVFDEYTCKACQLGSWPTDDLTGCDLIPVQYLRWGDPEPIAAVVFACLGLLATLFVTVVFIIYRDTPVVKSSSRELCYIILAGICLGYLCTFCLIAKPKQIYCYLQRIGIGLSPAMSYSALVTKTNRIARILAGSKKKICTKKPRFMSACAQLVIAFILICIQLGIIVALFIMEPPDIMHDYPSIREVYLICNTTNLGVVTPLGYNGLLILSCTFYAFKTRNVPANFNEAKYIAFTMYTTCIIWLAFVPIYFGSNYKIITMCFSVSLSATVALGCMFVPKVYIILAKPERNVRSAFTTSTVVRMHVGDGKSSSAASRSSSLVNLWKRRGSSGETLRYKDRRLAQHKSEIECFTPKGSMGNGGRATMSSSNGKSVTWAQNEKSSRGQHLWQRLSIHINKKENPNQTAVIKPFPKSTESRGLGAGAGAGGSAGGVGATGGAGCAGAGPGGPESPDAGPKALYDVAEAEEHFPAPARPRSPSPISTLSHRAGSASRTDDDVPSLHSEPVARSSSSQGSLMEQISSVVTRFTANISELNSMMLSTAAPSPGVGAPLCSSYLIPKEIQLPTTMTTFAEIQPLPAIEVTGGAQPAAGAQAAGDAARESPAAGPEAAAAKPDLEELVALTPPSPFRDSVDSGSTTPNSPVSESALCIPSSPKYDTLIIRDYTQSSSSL
Sequence of 5-HT2A serotonin receptor (P28223 whole entry): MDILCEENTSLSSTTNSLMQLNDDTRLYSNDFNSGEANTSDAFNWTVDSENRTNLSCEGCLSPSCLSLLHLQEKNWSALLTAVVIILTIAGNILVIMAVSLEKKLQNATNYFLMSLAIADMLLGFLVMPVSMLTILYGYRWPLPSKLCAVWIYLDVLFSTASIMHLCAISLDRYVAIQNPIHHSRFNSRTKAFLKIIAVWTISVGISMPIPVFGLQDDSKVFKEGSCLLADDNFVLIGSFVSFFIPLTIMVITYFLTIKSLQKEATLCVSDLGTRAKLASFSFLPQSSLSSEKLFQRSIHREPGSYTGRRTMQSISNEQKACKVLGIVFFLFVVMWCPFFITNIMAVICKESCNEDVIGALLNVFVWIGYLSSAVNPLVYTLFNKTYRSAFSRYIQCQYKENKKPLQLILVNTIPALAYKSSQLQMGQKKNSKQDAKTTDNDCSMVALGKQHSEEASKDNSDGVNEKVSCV

One may read the IC50 as the concentration that gives 50% inhibition. `Cl.N[C@]1(C(=O)O)[C@@H]2[C@@H](C(=O)O)[C@@H]2[C@H](O)[C@H]1CSc1ccc(F)c(F)c1` [Example 1, (1S,2R,3S,4S,5R,6R)-2-Amino-3-{[(3,4-difluorophenyl)sulfanyl]methyl}-4-hydroxybicyclo[3.1.0]hexane-2,6-dicarboxylic acid hydrochloride]: the “activity at muscarinic receptor M2” value on M2 muscarinic receptor is “no appreciable activity”. On iGluR5, the “activity at iGluR5” value is recorded as “no appreciable activity”. In addition, the “activity at serotonin receptor 5-HT2A” value in data set [1] is recorded as “no appreciable activity”. Besides, the inhibition at 12.5 µM is 6.3% at human mGlu1 receptor; 47% on human mGlu8 receptor (12.5 μM, inhibition of EC90 glutamate response, read-out: mGlu8 % inhib. @12.5 μM); 17.9% at human mGlu4 receptor; -2% on human mGlu5 receptor. For the same compound, in the data set with male NIH-Swiss mice (i.p.), the “ED60 (mg/kg)” value was 8.0 (i.p.) mg/kg. Besides, the “Maximal Decrease (1 − compound/control) * 100%” value with male NIH-Swiss mice (i.p.) was 36.1%. Also, the “immobility time in mGlu2+/+ mice” value in data set [2] was “significantly decrease immobility time”. Also, on hERG channel, the “activity at the hERG channel” value was “no appreciable activity”. The IC50 is 6.2 ± 2.2 nM on human mGlu3 receptor; 4970 nM at human mGlu8 receptor (FLIPR antagonist, in brackets under % inhib.); 1720 nM on human mGlu6 receptor. Besides, the “wakefulness in double knockout mGlu2(−/−) mGlu3(−/−) mice” value in [3] (double knockout) is “not significantly increase wakefulness”. The “wakefulness in single knockout mGlu2(−/−) mice” value in data set [3] (mGlu2(−/−), though at a reduced level) is recorded as “significantly increase wakefulness”. In addition, in [3] (mGlu3(−/−), though at a reduced level), the “wakefulness in single knockout mGlu3(−/−) mice” value is reported as “significantly increase wakefulness”. For the same compound, the “wakefulness in wild type mice” value in data set [3] (wild type) was “significantly increase wakefulness”. For the same compound, the “activity at serotonin receptor 5-HT2B” value in data set [4] was “no appreciable activity”.

For the compound `CC(C)OC(=O)OCOC(=O)[C@H]1[C@@H]2[C@H](O)[C@@H](CSc3ccc(F)c(Cl)c3)[C@@](N)(C(=O)OCOC(=O)OC(C)C)[C@H]12.Cl` [Example 22, Bis({[(1-methylethoxy)carbonyl]oxy}methyl) (1S,2R,3S,4S,5R,6R)-2-amino-3-{[(3-chloro-4-fluorophenyl)sulfanyl]methyl}-4-hydroxybicyclo[3.1.0]hexane-2,6-dicarboxylate hydrochloride], in the data set on male NIH-Swiss mice (p.o.), the “ED60 (mg/kg)” value is recorded as 20.5 (p.o.) mg/kg and the “Maximal Decrease (1 − compound/control) * 100%” value is listed as 50.1%.

Consider `CN(C)CCCC1(c2ccc(F)cc2)OCc2cc(C#N)ccc21` (stereo not shown) [Citalopram, citalopram, reference compound], for which, in the data set with mice (setting [5]), the “Immobilization Time” value was determined as 102 s and the “Maximal Decrease (1 − compound/control) * 100%” value is on record as 42.1%.

For the compound `CNCCC(Oc1ccc(C(F)(F)F)cc1)c1ccccc1` (stereo not shown) [Fluoxetine, fluoxetine, reference compound], in the data set on mice (setting [6]), the “Immobilization Time” value was 118 s and the “Maximal Decrease (1 − compound/control) * 100%” value is given as 31.5%.

Values taken from patent US8629169B2, “4-substituted-3-phenylsulfanylmethyl-bicyclo[3.1.0]hexane compounds as mGluR 2/3 antagonists” (Eli Lilly and Company, priority 2010, dated 2014).
